How the values were obtained:
[1] = background statement, test system not given; cited from earlier work
[2] = tested on: human colon NR-(wild-type) line WIDR; assay: Cytotoxicity in untransfected control cells (NR-), nitroreductase activation test; type: cell-based; conditions: IC50, unit inferred, read-out: Human colon lines NR-
Source text: (§1) Compounds of the invention were further tested against human cell lines (NR+ in Table 3) transfected with a gene encoding a bacterial nitroreductase (NR) enzyme to test for activation of compounds of the invention with NR. Untransfected control cells (NR- in Table 3) were used as controls. The cells used were the human colon NR-(wild-type) line WIDR and its transfected NR+ counterpart WC14.10; and the human ovarian NR- (wild-type) line SKOV3 together with its NR+ (transfected) counterpart SC3.2. The results are shown in Table 3, which also indicates the ratios of IC50s. These are intra-experiment values, and may differ slightly from those calculated from the given NR- and NR+ values.

[3] = tested on: human ovarian NR- (wild-type) line SKOV3; assay: as above; type: cell-based; conditions: SK-OV-3, IC50, unit inferred, read-out: Human ovarian lines NR-
Source text: as §1

WC14.10 = assay: Cytotoxicity in cells transfected with bacterial nitroreductase (NR+); type: cell-based; conditions: Homo sapiens; WC14.10 (NR+ transfected counterpart of WIDR); IC50, unit inferred; read-out: Human colon lines NR+
Source text: as §1

SC3.2 = assay: as above; type: cell-based; conditions: Homo sapiens, SK-OV-3; SC3.2 (NR+ transfected counterpart of SKOV3); IC50, unit inferred; read-out: Human ovarian lines NR+
Source text: as §1

Row | Compound | IC50's [1] | IC50 [2] [nM] | IC50 [3] [nM] | IC50 (WC14.10) [nM] | IC50 (SC3.2) [nM]
1 | COc1c(O)c2c(c3cc(C(=O)N4CCc5c4c(O)c(OC)c4[nH]c(C(=O)N6CC7CC78C6=CC(=O)c6[nH]cc(C)c68)cc54)[nH]c13)CCN2C(N)=O (centres unmarked) [CC-1065] | low pM range |  |  |  | 
2 | COc1cc2cc(C(=O)N3CC(COS(C)(=O)=O)c4c3cc([N+](=O)[O-])c3ccccc43)[nH]c2c(OC)c1OC (centres unmarked) [14o, 1-[(methanesulfonyloxy)methyl]-5-nitro-3-[(5,6,7-trimethoxyindol-2-yl)carbonyl]-1,2-dihydro-3H-benz[e]indole] |  | 410 | 410 | 60 | 50
3 | O=C(c1cc2cc([N+](=O)[O-])ccc2[nH]1)N1CC(CCl)c2c1cc([N+](=O)[O-])c1ccccc21 (centres unmarked) [14b, 1-(chloromethyl)-5-nitro-3-[(5-nitroindol-2-yl)carbonyl]-1,2-dihydro-3H-benz[e]indole] |  | 390 | 400 | 210 | 390
4 | COc1cccc(/C=C/C(=O)N2CC(CCl)c3c2cc([N+](=O)[O-])c2ccccc32)c1 (centres unmarked) [14l, 1-(chloromethyl)-3-[(E)-3-methoxycinnamoyl]-5-nitro-1,2-dihydro-3H-benz[e]iadole] |  | 140 | 130 | 80 | 40
5 | COC(=O)c1cc2c3c(cc(NC(=O)OCc4ccc([N+](=O)[O-])cc4)c2[nH]1)N(C(=O)c1cc2cc(OC)c(OC)c(OC)c2[nH]1)CC3CCl (centres unmarked) [32d, methyl 1-(chloromethyl) -5-[(4-nitrobenzyloxycarbonyl) -amino] -3-[(5,6,7-trimethoxyindol-2-yl)carbonyl]-1,2-dihydro-3H-pyrrolo[3,2-e]indole-7-carboxylate] |  | 490 | 1100 | 260 | 270
